Assay results as given in PubChem BioAssay (NCI).
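The concentration for 50% growth inhibition is given as GI50. At the TGI there is no net growth.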

Assays:
Assay in all cases: NCI anticancer screen, dose series, 384-well format
CCRF-CEM leukemia = tested on: CCRF-CEM leukemia
COLO 205 colon = tested on: COLO 205 colon
HS 578T breast = tested on: HS 578T breast
K-562 leukemia = tested on: K-562 leukemia
LOX IMVI melanoma = tested on: LOX IMVI melanoma
MDA-MB-231 breast = tested on: MDA-MB-231 breast
MDA-MB-468 breast = tested on: MDA-MB-468 breast
NCI-H23 lung = tested on: NCI-H23 lung
NCI-H322M lung = tested on: NCI-H322M lung
NCI/ADR-RES ovarian = tested on: NCI/ADR-RES ovarian
SF-268 CNS = tested on: SF-268 CNS
SF-295 CNS = tested on: SF-295 CNS
U251 glioblastoma = tested on: U251 glioblastoma

Question: Which GI50 (CCRF-CEM leukemia) does the source give for `O=C(c1cc(Cc2n[nH]c(=O)c3ccccc23)ccc1F)N1CCN(C(=O)C2CC2)CC1` here?
Answer: 6.5 µM

Question: And the TGI (CCRF-CEM leukemia)?
Answer: > 100 µM

Question: What about the GI50 (COLO 205 colon) of the same compound?
Answer: > 77 µM

Question: What about the TGI (COLO 205 colon) of the same compound?
Answer: > 100 µM

Question: And the GI50 (HS 578T breast)?
Answer: 25.9 µM

Question: What about the TGI (HS 578T breast) of the same compound?
Answer: > 100 µM

Question: What about the GI50 (K-562 leukemia) of the same compound?
Answer: 33.5 µM

Question: What about the TGI (K-562 leukemia) of the same compound?
Answer: > 100 µM

Question: And the GI50 (LOX IMVI melanoma)?
Answer: 23 µM

Question: What about the TGI (LOX IMVI melanoma) of the same compound?
Answer: > 100 µM

Question: What about the GI50 (MDA-MB-231 breast) of the same compound?
Answer: > 61.1 µM

Question: What about the TGI (MDA-MB-231 breast) of the same compound?
Answer: > 100 µM

Question: And the GI50 (MDA-MB-468 breast)?
Answer: 3.76 µM

Question: What about the TGI (MDA-MB-468 breast) of the same compound?
Answer: 16.7 µM

Question: What about the GI50 (NCI-H23 lung) of the same compound?
Answer: 16.3 µM

Question: And the TGI (NCI-H23 lung)?
Answer: > 100 µM

Question: What about the GI50 (NCI-H322M lung) of the same compound?
Answer: > 100 µM

Question: What about the TGI (NCI-H322M lung) of the same compound?
Answer: > 100 µM

Question: What about the GI50 (NCI/ADR-RES ovarian) of the same compound?
Answer: > 100 µM

Question: And the TGI (NCI/ADR-RES ovarian)?
Answer: > 100 µM

Question: And the GI50 (SF-268 CNS)?
Answer: 24.9 µM

Question: And the TGI (SF-268 CNS)?
Answer: > 90.3 µM

Question: What about the GI50 (SF-295 CNS) of the same compound?
Answer: 4.68 µM

Question: What about the TGI (SF-295 CNS) of the same compound?
Answer: > 37.3 µM

Question: And the GI50 (U251 glioblastoma)?
Answer: 27.3 µM

Question: What about the TGI (U251 glioblastoma) of the same compound?
Answer: > 100 µM
